Data: patent publication US20240075000A1 (priority 2021, published 2024)
Structures can show the parent of a compound that is named as a salt.

How the values were obtained:
[1] = tested on: post-COVID-19 fatigue patient; assay: post-COVID-19 fatigue case, physician (Example 3); conditions: 500 mg BID; for Visual Fatigue Score: baseline 3, range 0 worst to 10 no fatigue; for Chalder Fatigue Score: range 33 worst to 0 no fatigue; for Fatigue Severity Score: baseline 54, range 63 worst to 9 no fatigue; for PROMIS Fatigue 7a: range 35 worst to 7 no fatigue
[2] = tested on: patient; assay: one-year high-dose tolerability in a patient; type: in vivo, human; conditions: up to 6,000 mg/day for one year in a patient
[3] = tested on: Amyotrophic Lateral Sclerosis (ALS) patients; assay: Phase 1 clinical trial in ALS, patient testimonials; type: in vivo, human; conditions: 1000 mg BID, dose taken without food; went away on eating
Description: A Phase 1 clinical trial was conducted with the Inventor supplying the anhydrous enol-oxaloacetate drug. Typically, Phase 1 clinical trials focus on the safety of a proposed drug, but patient response efficacy is also important and is noted. […] My name is […]. I was diagnosed with Bulbar onset ALS by Dr. Jawdat at the KU Medical Center in Kansas City KS on Oct. 14, 2020. […] I have muscle fasciculations pretty much all over my body at times and most are constant. The first 4 to 5 days taking the supplement, I did feel like they intensified an hour to two hours after taking it, and it lasted for approximately an hour or two. After those 4 or 5 days, it went back to the normal strength. At approximately the third week of taking the supplement I began to notice my tongue movement had better range of motion. I could see it pushing out the side of my cheek, I couldn't get it over there before. I also have felt like my left hand has gained a little strength and grip and I feel like I have a bit more strength in my left wrist. I do however feel like most things are still declining, but with such a short time of trying the supplement, I want to keep taking it to see if things can keep improving/changing. I am currently not on any ALS medications but do take some vitamins. • Patient 2. My spouse, Nathan, was part of a study with oxaloacetate for ALS. […]

[4] = tested on: post-COVID-19 fatigue patient; assay: post-COVID-19 fatigue case (Example 5); type: in vivo, human; conditions: 500 mg BID
Description: Afterwards, although their fever was resolved, they experienced fatigue so extreme that it was difficult for them to walk to the bathroom. They started taking 500 mg anhydrous enol-oxaloacetate BID for 45 days. Within 3 days 80% of fatigue was resolved. After 30 days, 100% of their fatigue was resolved.

With `O=C(O)CC(=O)C(=O)O` [anhydrous enol-oxaloacetate, hydroxy fumarate] the “Visual Fatigue Score” value ([1]; Final, Dec. 3, 2020) was 10, the “Chalder Fatigue Score” value ([1]; Final, Dec. 3, 2020, baseline 22) was 2 and the “Fatigue Severity Score” value ([1]; Final, Dec. 3, 2020) was 20. The “PROMIS Fatigue 7a” value ([1]; Final, Dec. 3, 2020) was 11, the “Visual Fatigue Score” value ([1]; Nov. 3, 2020) was 4 and the “Fatigue Severity Score” value ([1]; Nov. 3, 2020) was 54. For the same compound, the “PROMIS Fatigue 7a” value ([1]; Nov. 3, 2020, baseline N/A) was 25, the “Chalder Fatigue Score” value ([1]; Nov. 3, 2020, baseline Oct. 14, 2020 22) was 16 and the side effects [2] was “no negative side effects”. The “side effect noticed by the patient” value [3] was “upset stomach”, the fatigue resolved ([4]; after 30 days) was 100% and the fatigue resolved ([4]; within 3 days) was 80%.
